14 molecules from patent US20260374766A1, “METHODS FOR TREATING CANCER” (Antares Therapeutics, Inc., priority 2022, published 2026) can be followed below.

Structures can show the parent of a compound that is named as a salt. Some results are limits rather than exact numbers.

Test [1] addresses T1, p53 Y220C mutant protein (amino acid residues 94-293) (Homo sapiens, UniProt P04637, Y220C).
T1 construct: p53 Y220C mutant protein (amino acid residues 94-293)
In words: Thermal Shift Assay (TSA), dTM. It counts as binding. The following applies: thermal shift; for ΔTm at 100 µM: 100 uM compound, read-out: TSA P53 Y220C dTM (100 uM); for ΔTm at 10 µM: 10 uM compound, read-out: TSA P53 Y220C dTM (10 uM). The method, then: Thermal Shift Assay (TSA) Protocol
5 μM recombinant p53 Y220C mutant protein (amino acid residues 94-293) was incubated with 10 μM or 100 μM compound for 3 hours at 20 °C in buffer containing 20 mM HEPES, pH7.4, 100 mM NaCl, 0.01% Pluronic F-127, and 1% DMSO in the presence of 400-fold diluted Sypro Orange (ThermoFisher Scientific catalog number 4461146), on a 384-well PCR plate (Applied Biosystems catalog number 4483285). The volume was 5 μL/well. The sealed plate was then loaded onto a QuantStudio 7 Flex instrument for melting temperature (TM) measurement. The temperature was increased from 30 °C to […], at a rate of 0.03 °C/second. Data were fit into a Boltzmann two-state model to determine the TM.

In the next test the target is p53 Y220C (Homo sapiens, UniProt P04637, Y220C). The test can be described thus: Luciferase Reporter Assay (Luc), p53 response element, NClH1299 cells with inducible p53 Y220C. It counts as cell-based. As to conditions: luciferase reporter, NClH1299 inducible p53 Y220C, 6 hour; for Emax: 10 uM tool compound as positive control; for AC50: read-out: Luc P53 Y220C AC50. The method, boiled down:
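Cells were seeded at 5,000 per well and induced with 0.5 ug/mL doxycycline for 24 hours, then exposed to compound for 6 hours. One-Glo reagent was added, plates shaken 5 minutes at room temperature, and luminescence read immediately.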

The next test relates to NUGC3 p53 Y220C. In words: Cell Proliferation Assay (CellTiter-Glo, CTG), NUGC3 p53 Y220C. It counts as cell-based. The following applies: Homo sapiens, NUGC-3, 120 h, CellTiter-Glo, NUGC3 p53 Y220C, 5 days. The method, boiled down:
(§1)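 Tet-One inducible p53 Y220C or R273H constructs were stably introduced into NCI-H1299 by lentiviral transduction; NUGC3 was used as is. Cells (250-500 per well) were exposed to compound for 5 days, then CellTiter-Glo was added for 10 min at room temperature and IC50 was calculated from luminescence.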

The test system of another test is H1299 p53 Y220C. The test can be described thus: Cell Proliferation Assay (CellTiter-Glo, CTG), H1299 p53 Y220C (NClH1299-inducible p53 Y220C). It counts as cell-based. The following applies: Homo sapiens, NCI-H1299, 120 h, CellTiter-Glo, H1299 p53 Y220C, 5 days. The method, boiled down: as §1
Another test has as its system H1299 p53 R273H. The test can be described thus: Cell Proliferation Assay (CellTiter-Glo, CTG), H1299 p53 R273H (NClH1299-inducible p53 R273H). It counts as cell-based. The following applies: Homo sapiens, NCI-H1299, 120 h, CellTiter-Glo, H1299 p53 R273H, 5 days. In short, it runs like this: as §1

With `CNC(=O)c1ccc(NCC#Cc2nc3c(NC4CCN(C)CC4)cc(NC(C)=O)cn3c2CC(F)(F)F)c(OC)c1` [Example 41, 4-[(3-{6-acetamido-8-[(1-methylpiperidin-4-yl)amino]-3-(2,2,2-trifluoroethyl)imidazo[1,2-a]pyridin-2-yl}prop-2-yn-1-yl)amino]-3-methoxy-N-methylbenzamide], in test [1], the ΔTm at 100 µM is 1 to 5 °C. On p53 Y220C, this molecule displayed an Emax of under 70%. Moreover, the AC50 on p53 Y220C is over 3 µM. Also, the figures for the IC50 in the test with NUGC3 p53 Y220C, with H1299 p53 Y220C and with H1299 p53 R273H were over 3 µM, over 3 µM and at least 10 µM, respectively.
With `CNC(=O)c1ccc(NCC#Cc2nc3c(NC4CCN(C)CC4)cc(NC(=O)CCl)cn3c2CC(F)(F)F)c(OC)c1` [Example 91], the ΔTm at 100 µM in test [1] was at least 10 °C. Also, at p53 Y220C, the Emax was under 70%. In addition, on p53 Y220C, the AC50 is over 3 µM. Besides, the IC50 in the test with NUGC3 p53 Y220C was over 3 µM; in the test on H1299 p53 Y220C, over 3 µM; in the test on H1299 p53 R273H, at least 10 µM.
Consider `COc1cc(S(C)(=O)=O)ccc1NCC#Cc1nc2c(NC3CCN(C)CC3)cc(-c3ccccc3)cn2c1CC(F)(F)F` [Example 34, N-(2-{3-[(4-methanesulfonyl-2-methoxyphenyl)amino]prop-1-yn-1-yl}-6-phenyl-3-(2,2,2-trifluoroethyl)imidazo [1,2-a]pyridin-8-yl)-1-methylpiperidin-4-amine, formic acid salt], for which, in test [1], the ΔTm at 100 µM was 1 to 5 °C. On p53 Y220C, this molecule returned an Emax of under 70%. Moreover, on p53 Y220C, the AC50 was over 3 µM. Also, the IC50 with NUGC3 p53 Y220C was 1.5 to 3 µM; in the test with H1299 p53 Y220C, 1.5 to 3 µM; in the test with H1299 p53 R273H, under 5 µM.
For `COc1cc(P(C)(C)=O)ccc1NCC#Cc1cc2c(N[C@@H]3CCN(C)C[C@@H]3F)nccn2c1SC(F)(F)F` [Example 185, (3S,4R)—N-[7-(3-{[4-(dimethylphosphoryl)-2-methoxyphenyl]amino}prop-1-yn-1-yl)-6-[(trifluoromethyl)sulfanyl]pyrrolo[1,2-a]pyrazin-1-yl]-3-fluoro-1-methylpiperidin-4-amine; formic acid], in test [1], the ΔTm at 10 µM was at least 10 °C. Further, the Emax at p53 Y220C is 80 to 90%. Besides, the AC50 at p53 Y220C was under 0.75 µM. Further, the values for the IC50 in the test on NUGC3 p53 Y220C, in the test on H1299 p53 Y220C and with H1299 p53 R273H were under 0.75 µM, under 0.75 µM and at least 10 µM, respectively.
Regarding `CN1CC[C@@H](Nc2cccn3c(CC(F)(F)F)c(C#CCN)nc23)[C@@H](F)C1` [Example 75, (3S,4R)—N-[2-(3-aminoprop-1-yn-1-yl)-3-(2,2,2-trifluoroethyl)imidazo[1,2-a]pyridin-8-yl]-3-fluoro-1-methylpiperidin-4-amine], the ΔTm at 100 µM in test [1] lay in the range of 1 to 5 °C. At p53 Y220C, this molecule yielded an Emax of under 70%. Further, the AC50 on p53 Y220C was over 3 µM. For the same molecule, the IC50 was over 3 µM in the test on NUGC3 p53 Y220C, over 3 µM with H1299 p53 Y220C and at least 10 µM with H1299 p53 R273H.
As to `CNC(=O)c1ccc(NCC#Cc2nc3c(N[C@@H]4CCN(C)C[C@@H]4F)cc(F)cn3c2CC(F)(F)F)c(OC)c1` [Example 99, 4-{[3-(6-fluoro-8-{[(3S,4R)-3-fluoro-1-methylpiperidin-4-yl]amino}-3-(2,2,2-trifluoroethyl)imidazo[1,2-a]pyridin-2-yl)prop-2-yn-1-yl]amino}-3-methoxy-N-methylbenzamide, formic acid salt], the ΔTm at 100 µM in test [1] is at least 10 °C. Further, the Emax on p53 Y220C was in the range of 80 to 90%. The AC50 on p53 Y220C was in the range of 0.75 to 1.5 µM. Further, the IC50 lay in the range of 0.75 to 1.5 µM in the test with NUGC3 p53 Y220C, 0.75 to 1.5 µM in the test with H1299 p53 Y220C and 5 to 8 µM in the test on H1299 p53 R273H.
On to `COc1cc(S(C)(=O)=O)ccc1NCC#Cc1nc2c(NC3CCN(C(C)=O)CC3)cccn2c1CC(F)(F)F` [Example 10, 1-{4-[(2-{3-[(4-methanesulfonyl-2-methoxyphenyl)amino]prop-1-yn-1-yl}-3-(2,2,2-trifluoroethyl)imidazo[1,2-a]pyridin-8-yl)amino]piperidin-1-yl}ethanone], for which the ΔTm at 100 µM in test [1] is 5 to 10 °C. On p53 Y220C, this molecule had an Emax of 80 to 90%. The AC50 on p53 Y220C is over 3 µM. Further, the results for the IC50 in the test on NUGC3 p53 Y220C, in the test on H1299 p53 Y220C and in the test with H1299 p53 R273H were over 3 µM, 1.5 to 3 µM and at least 10 µM, respectively.
As to `COc1cc(S(C)(=O)=O)ccc1NCC#Cc1nc2c(NC3CCN(C)CC3)cc(O)cn2c1CC(F)(F)F` [Example 27, 2-{3-[(4-methanesulfonyl-2-methoxyphenyl)amino]prop-1-yn-1-yl}-8-[(1-methylpiperidin-4-yl)amino]-3-(2,2,2-trifluoroethyl)imidazo[1,2-a]pyridin-6-ol, TFA salt], in test [1], the ΔTm at 100 µM lay within 5 to 10 °C. This molecule had an Emax on p53 Y220C of under 70%. Also, the concentration at half-maximal activity (AC50) at p53 Y220C is over 3 µM. Also, the results for the IC50 in the test with NUGC3 p53 Y220C, in the test with H1299 p53 Y220C and with H1299 p53 R273H were over 3 µM, over 3 µM and at least 10 µM, respectively.
`C=CC(=O)Nc1c(C#CCNc2ccc(C(=O)NC)cc2OC)nc2c(N[C@@H]3CCN(C)C[C@@H]3F)cccn12` [Example 23, 4-{[3-(8-{[(3S,4R)-3-fluoro-1-methylpiperidin-4-yl]amino}-3-(prop-2-enamido)imidazo[1,2-a]pyridin-2-yl)prop-2-yn-1-yl]amino}-3-methoxy-N-methylbenzamide]: the ΔTm at 100 µM in test [1] fell in the range of 5 to 10 °C. The Emax at p53 Y220C is under 70%. Moreover, the AC50 at p53 Y220C was over 3 µM. Further, the IC50 was over 3 µM in the test with NUGC3 p53 Y220C, over 3 µM in the test with H1299 p53 Y220C and at least 10 µM with H1299 p53 R273H.
For `CNC(=O)c1ccc(NCC#Cc2nc3c(NC4CCN(C)CC4)cc(NC(=O)OC)cn3c2CC(F)(F)F)c(OC)c1` [Example 45, methyl N-[2-(3-{[2-methoxy-4-(methylcarbamoyl)phenyl]amino}prop-1-yn-1-yl)-8-[(1-methylpiperidin-4-yl)amino]-3-(2,2,2-trifluoroethyl)imidazo[1,2-a]pyridin-6-yl]carbamate], the ΔTm at 100 µM in test [1] fell in the range of 1 to 5 °C. On p53 Y220C, this molecule returned an Emax of under 70%. At p53 Y220C, the AC50 was over 3 µM. Further, the IC50 in the test on NUGC3 p53 Y220C was over 3 µM; in the test with H1299 p53 Y220C, over 3 µM; with H1299 p53 R273H, at least 10 µM.
On to `CNC(=O)c1ccc(NCC#Cc2nc3c(N[C@@H]4CCN(C)C[C@@H]4F)cccn3c2SC(F)(F)F)c(OC)c1` [Example 28, 4-{[3-(8-{[(3S,4R)-3-fluoro-1-methylpiperidin-4-yl]amino}-3-[(trifluoromethyl)sulfanyl]imidazo[1,2-a]pyridin-2-yl)prop-2-yn-1-yl]amino}-3-methoxy-N-methylbenzamide, formic acid salt], for which, in test [1], the ΔTm at 10 µM was at least 10 °C. Also, in test [1], the ΔTm at 100 µM is at least 10 °C. This molecule displayed an Emax on p53 Y220C of 80 to 90%. Besides, the AC50 on p53 Y220C is under 0.75 µM. Besides, the IC50 is under 0.75 µM in the test on NUGC3 p53 Y220C, under 0.75 µM in the test on H1299 p53 Y220C and 8 to 10 µM in the test on H1299 p53 R273H.
In the case of `CNC(=O)c1ccc(NCC#Cc2nc3c(NC4CCN(C)CC4)cc(NC(=O)C(F)Cl)cn3c2CC(F)(F)F)c(OC)c1` (stereo not shown) [Example 43, 4-((3-[6-(2-chloro-2-fluoroacetamido)-8-[(1-methylpiperidin-4-yl)amino]-3-(2,2,2-trifluoroethyl)imidazo[1,2-a]pyridin-2-yl]prop-2-yn-1-ylamino)-3-methoxy-N-methylbenzamide, formic acid salt], the ΔTm at 100 µM in test [1] fell in the range of 1 to 5 °C. At p53 Y220C, this molecule came in with an Emax of under 70%. The AC50 on p53 Y220C was over 3 µM. Also, the IC50 in the test with NUGC3 p53 Y220C was over 3 µM; in the test on H1299 p53 Y220C, over 3 µM; in the test with H1299 p53 R273H, at least 10 µM.
Turning to `C=CC(=O)Nc1cc(NC2CCN(C)CC2)c2nc(C#CCNc3ccc(C(=O)NC)cc3OC)c(CC(F)(F)F)n2c1` [Example 42, 3-methoxy-N-methyl-4-[(3-{8-[(1-methylpiperidin-4-yl)amino]-6-(prop-2-enamido)-3-(2,2,2-trifluoroethyl)imidazo[1,2-a]pyridin-2-yl}prop-2-yn-1-yl)amino]benzamide], the ΔTm at 100 µM in test [1] is under 1 °C. For the same molecule, the Emax at p53 Y220C was under 70%. Moreover, the AC50 at p53 Y220C is over 3 µM. For the same molecule, the IC50 was over 3 µM in the test on NUGC3 p53 Y220C, over 3 µM in the test on H1299 p53 Y220C and at least 10 µM in the test on H1299 p53 R273H.
Take `C=CC(=O)N(C)c1c(C#CCNc2ccc(C(=O)NC)cc2OC)nc2c(N[C@@H]3CCN(C)C[C@@H]3F)cccn12` [Example 26, 4-{[3-(8-{[(3S,4R)-3-fluoro-1-methylpiperidin-4-yl]amino}-3-(N-methylprop-2-enamido)imidazo[1,2-a]pyridine-2-yl)prop-2-yn-1-yl]amino}-3-methoxy-N-methylbenzamide]: in test [1], the ΔTm at 100 µM was in the range of 5 to 10 °C. At p53 Y220C, this molecule had an Emax of under 70%. Further, the AC50 at p53 Y220C was over 3 µM. Besides, the IC50 in the test with NUGC3 p53 Y220C is over 3 µM; with H1299 p53 Y220C, over 3 µM; in the test on H1299 p53 R273H, at least 10 µM.
